Laboratory results: the supplement of paper PMC11208160

Test: recombinant UMI read abundance after kanamycin selection (control-corrected) (log10(CPM+1)); higher = more efficient recombination; extreme values may be limits of the assay; sequences stand for … in AGTGCAGAGAAAATCGGCCAGTTTTCTCTGCCTGCAGTCCGCATGCCGTGGGACCCCTTGGGTTCTAACCTGTTGCCTAGATTTATGCAGCGGACTGCCTTTCTCCCAAAGTGATAAACCGG…AGGTTGGTTTCACT; site = the 11-nt donor
Summary of the method: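 Two replicates each of selected and unselected plating were used in this pooled Escherichia coli screen of donor and donor-binding-loop pairs for the IS621 bridge recombinase. Selection was with IPTG (0.07 mM) and kanamycin. Counts of recombinant UMIs, amplified across the donor–target junction, were converted to CPM, averaged, scaled by control-derived factors and reported as log10(CPM+1).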
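Further: IS621 bridge recombinase in Escherichia coli cells against a fixed T5 target plasmid.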

Sequence | recombinant UMI read abundance (log10)
TGGCCGCCATGGACCGGTTTTCCCGGTAATCCGTATTTGGC (site TGGCCGACTGC) | 0.0204
TGGCCGCCATGGACCGGTTTTCCCGGTAATCCGTATTTGGC (site TGGCCGCCTGC) | 0
TGGCCGCCATGGACCGGTTTTCCCGGTAATCCGTATTTGGC (site TGGCCGGCTGC) | 0
TGGCCGCCATGGACCGGTTTTCCCGGTAATCCGTATTTGGC (site TGGCCGTCTGC) | 0
TGGCCGGCATGGACCGGTTTTCCCGGTAATCCGTATTTGGC (site AGGCCGGCTGC) | 0
TGGCCGGCATGGACCGGTTTTCCCGGTAATCCGTATTTGGC (site CGGCCGGCTGC) | 0
TGGCCGGCATGGACCGGTTTTCCCGGTAATCCGTATTTGGC (site GGGCCGGCTGC) | 0
TGGCCGGCATGGACCGGTTTTCCCGGTAATCCGTATTTGGC (site TAGCCGGCTGC) | 0
TGGCCGGCATGGACCGGTTTTCCCGGTAATCCGTATTTGGC (site TCGCCGGCTGC) | 0
TGGCCGGCATGGACCGGTTTTCCCGGTAATCCGTATTTGGC (site TGACCGGCTGC) | 0
TGGCCGGCATGGACCGGTTTTCCCGGTAATCCGTATTTGGC (site TGCCCGGCTGC) | 0
TGGCCGGCATGGACCGGTTTTCCCGGTAATCCGTATTTGGC (site TGGACGGCTGC) | 0
TGGCCGGCATGGACCGGTTTTCCCGGTAATCCGTATTTGGC (site TGGCAGGCTGC) | 0
TGGCCGGCATGGACCGGTTTTCCCGGTAATCCGTATTTGGC (site TGGCCAGCTGC) | 0
TGGCCGGCATGGACCGGTTTTCCCGGTAATCCGTATTTGGC (site TGGCCCGCTGC) | 0
TGGCCGGCATGGACCGGTTTTCCCGGTAATCCGTATTTGGC (site TGGCCGACTGC) | 0
TGGCCGGCATGGACCGGTTTTCCCGGTAATCCGTATTTGGC (site TGGCCGCCTGC) | 0
TGGCCGGCATGGACCGGTTTTCCCGGTAATCCGTATTTGGC (site TGGCCGGCTAC) | 0.0414
TGGCCGGCATGGACCGGTTTTCCCGGTAATCCGTATTTGGC (site TGGCCGGCTCC) | 0.0175

Sequence | recombinant UMI read abundance (log10)
TGGCCGGCATGGACCGGTTTTCCCGGTAATCCGTATTTGGC (site TGGCCGGCTGA) | 0
TGGCCGGCATGGACCGGTTTTCCCGGTAATCCGTATTTGGC (site TGGCCGGCTGC) | 0.862
TGGCCGGCATGGACCGGTTTTCCCGGTAATCCGTATTTGGC (site TGGCCGGCTGG) | 0
TGGCCGGCATGGACCGGTTTTCCCGGTAATCCGTATTTGGC (site TGGCCGGCTGT) | 0
TGGCCGGCATGGACCGGTTTTCCCGGTAATCCGTATTTGGC (site TGGCCGGCTTC) | 0.00718
TGGCCGGCATGGACCGGTTTTCCCGGTAATCCGTATTTGGC (site TGGCCGTCTGC) | 0
TGGCCGGCATGGACCGGTTTTCCCGGTAATCCGTATTTGGC (site TGGCCTGCTGC) | 0
TGGCCGGCATGGACCGGTTTTCCCGGTAATCCGTATTTGGC (site TGGCGGGCTGC) | 0
TGGCCGGCATGGACCGGTTTTCCCGGTAATCCGTATTTGGC (site TGGCTGGCTGC) | 0
TGGCCGGCATGGACCGGTTTTCCCGGTAATCCGTATTTGGC (site TGGGCGGCTGC) | 0
TGGCCGGCATGGACCGGTTTTCCCGGTAATCCGTATTTGGC (site TGGTCGGCTGC) | 0.00844
TGGCCGGCATGGACCGGTTTTCCCGGTAATCCGTATTTGGC (site TGTCCGGCTGC) | 0
TGGCCGGCATGGACCGGTTTTCCCGGTAATCCGTATTTGGC (site TTGCCGGCTGC) | 0.00854
TGGCCGTCATGGACCGGTTTTCCCGGTAATCCGTATTTGAG (site TGGCCGTCTCT) | 0.297
TGGCCTGCATGGACCGGTTTTCCCGGTAATCCGTATTTGGC (site TGGCCAGCTGC) | 0
TGGCCTGCATGGACCGGTTTTCCCGGTAATCCGTATTTGGC (site TGGCCCGCTGC) | 0
TGGCCTGCATGGACCGGTTTTCCCGGTAATCCGTATTTGGC (site TGGCCGGCTGC) | 0
TGGCCTGCATGGACCGGTTTTCCCGGTAATCCGTATTTGGC (site TGGCCTGCTGC) | 0
TGGCTAGCATGGACCGGTTTTCCCGGTAATCCGTATTTGAA (site TAGCTAGCTTT) | 0.00919

Sequence | recombinant UMI read abundance (log10)
TGGCTAGCATGGACCGGTTTTCCCGGTAATCCGTATTTGAA (site TCGCTAGCTTT) | 0.0168
TGGCTAGCATGGACCGGTTTTCCCGGTAATCCGTATTTGAA (site TGGCTAGCTTT) | 1.06
TGGCTAGCATGGACCGGTTTTCCCGGTAATCCGTATTTGAA (site TTGCTAGCTTT) | 0.00374
TGGCTCTCATGGACCGGTTTTCCCGGTAATCCGTATTTGCA (site TGGCTCTCTTG) | 1.86
TGGGAACCATGGACCGGTTTTCCCGGTAATCCGTATTTGAT (site AGGGAACCTAT) | 0
TGGGAACCATGGACCGGTTTTCCCGGTAATCCGTATTTGAT (site CGGGAACCTAT) | 0.00502
TGGGAACCATGGACCGGTTTTCCCGGTAATCCGTATTTGAT (site GGGGAACCTAT) | 0
TGGGAACCATGGACCGGTTTTCCCGGTAATCCGTATTTGAT (site TGGGAACCTAT) | 0.00982
TGGTCCACATGGACCGGTTTTCCCGGTAATCCGTATTTGTC (site TGGTCCACTGA) | 0.323
TGGTCCCCATGGACCGGTTTTCCCGGTAATCCGTATTTGTA (site TGATCCCCTTA) | 0
TGGTCCCCATGGACCGGTTTTCCCGGTAATCCGTATTTGTA (site TGCTCCCCTTA) | 0.176
TGGTCCCCATGGACCGGTTTTCCCGGTAATCCGTATTTGTA (site TGGTCCCCTTA) | 0.0183
TGGTCCCCATGGACCGGTTTTCCCGGTAATCCGTATTTGTA (site TGTTCCCCTTA) | 0.00825
TGGTGCACATGGACCGGTTTTCCCGGTAATCCGTATTTGCC (site TGGTGCACTGG) | 1.75
TGGTTCCCATGGACCGGTTTTCCCGGTAATCCGTATTTGTG (site AGGTTCCCTCA) | 0.0205
TGGTTCCCATGGACCGGTTTTCCCGGTAATCCGTATTTGTG (site CGGTTCCCTCA) | 0.0117
TGGTTCCCATGGACCGGTTTTCCCGGTAATCCGTATTTGTG (site GGGTTCCCTCA) | 0.0263
TGGTTCCCATGGACCGGTTTTCCCGGTAATCCGTATTTGTG (site TGGTTCCCTCA) | 0.0117
TGGTTGACATGGACCGGTTTTCCCGGTAATCCGTATTTGTA (site TGGTTGACTTA) | 1.04
